Consider one molecule from patent EP0381345B1, “Aqueous liquid desmopressin-CMC pharmaceutical composition” (CORINT, LTD., priority 1989, dated 1990).

Marks after values point to notes of the source that are not given here.

One data set relates to Normal test subjects. Conditions: in vivo. The protocol:
Normal test subjects were loaded with 1.5% body weight of water under constantly maintained conditions, with urine being collected every 30 minutes, as described by J.H. Cort et al., Kidney International. 8:292, 1975, and then they were administered dDAVP intranasally, using a standard 0.1 mg/ml formulation obtained from Ferring AB of Malmo. A portion of the dDAVP was set aside, while Na-CMC was added to another portion to form a solution having a CMC:dDAVP weight ratio of 100:1.

A further data set in a line: in vivo. Conditions: male, rat, sc, pH 4.
The conditions of data set [1]: in vivo, iv; cited from earlier work.

In general, Cmax refers to the highest concentration seen after dosing. One may read the Tmax as the time at which the peak concentration occurs. For orientation: half-life means the time needed for the level to fall by half in the phase considered. The low end stands for fast loss, the high end for slow loss. Consider `NC(=O)CC[C@@H]1NC(=O)[C@H](Cc2ccccc2)NC(=O)[C@H](Cc2ccc(O)cc2)NC(=O)CCSSC[C@@H](C(=O)N2CCC[C@H]2C(=O)N[C@H](CCCN=C(N)N)C(=O)NCC(N)=O)NC(=O)[C@H](CC(N)=O)NC1=O` [dDAVP, desmopressin], for which the “Peak % Inhibition of Diuretic Urine Flow” value with Normal test subjects is -76.7* %. Further, in “in vivo”, the Cmax is 0.027 ng/mL, the Tmax was 8.8 min and the half-life was 20.5 min. Also, the “half-life (T1/2)” value in data set [1] is 17 to 18 min.
